Reference: patent US8889591B2, “Herbicidal compositions comprising 4-amino-3-chloro-5-fluoro-6-(4-chloro-2-fluoro-3-methoxyphenyl)pyridine-2-carboxylic acid or a derivative thereof and bromobutide, daimuron, oxaziclomefone or pyributicarb” (Dow Agrosciences LLC, priority 2012, dated 2014)

Experiments:
ECHOR = test: In-water applied greenhouse weed control, transplanted paddy rice system; assay type: in vivo, Echinochloa oryzoides (Ard.) Fritsch; conditions: in-water application
Method: (§1) Weed seeds or nutlets of the desired test plant species were planted in puddled soil (mud) prepared by mixing a shredded, non-sterilized mineral soil (50.5 percent silt, 25.5 percent clay, and 24 percent sand, with a pH of about 7.6 and an organic matter content of about 2.9 percent) and water at a 1:1 volumetric ratio. The prepared mud was dispensed in 365 mL aliquots into 16-ounce (oz.) non-perforated plastic pots with a surface area of 86.59 square centimeters (cm^2) leaving a headspace of 3 centimeters (cm) in each pot. Mud was allowed to dry overnight prior to planting or transplanting. Rice seeds were planted in Sun Gro MetroMix® 306 planting mixture, which typically has a pH of 6.0 to 6.8 and an organic matter content of about 30 percent, in plastic plug trays. Seedlings at the second or third leaf stage of growth were transplanted into 840 mL of mud contained in 32-oz. non-perforated plastic pots with a surface area of 86.59 cm^2 4 days prior to herbicide application. The paddy was created by filling the headspace of the pots with 2.5 to 3 cm of water. When required to ensure good germination and healthy plants, a fungicide treatment and/or other chemical or physical treatment was applied. The plants were grown for 4-22 days in a greenhouse with an approximate 14 h photoperiod which was maintained at about 29° C. during the day and 26° C. during the night. Nutrients were added as Osmocote® (19:6:12, N:P:K+ minor nutrients) at 2 g per 16-oz. pot and 4 g per 32-oz. pot. Water was added on a regular basis to maintain the paddy flood, and supplemental lighting was provided with overhead metal halide 1000-Watt lamps as necessary. The plants were employed for testing when they reached the first through fourth true leaf stage.
(§2) Treatments consisted of the acid or esters of 4-amino-3-chloro-5-fluoro-6-(4-chloro-2-fluoro-3-methoxy-phenyl)pyridine-2-carboxylic acid (compound A) each formulated as an SC and various herbicidal components alone and in combination. Forms of compound A were applied on an acid equivalent basis.
(§3) Other herbicidal components were applied on an active ingredient basis and included daimuron formulated as an EC, bromobutide (technical grade material), and oxaziclomefone (technical grade material).
(§4) Treatment requirements for each compound or herbicidal component were calculated based upon the rates being tested, the concentration of active ingredient or acid equivalent in the formulation, an application volume of 2 mL per component per pot, and an application area of 86.59 cm^2 per pot.
(§5) For formulated compounds, a measured amount was placed in an individual 100 or 200 mL glass vial and was dissolved in a volume of 1.25% (v/v) Agri-Dex® crop oil concentrate to obtain application solutions.
(§6) For technical grade compounds, a weighed amount was placed in an individual 100 to 200 mL glass vial and was dissolved in a volume of acetone to obtain concentrated stock solutions. […] The concentrated stock solutions obtained were diluted with an equivalent volume of an aqueous mixture containing 2.5% (v/v) crop oil concentrate so that the final application solutions contained 1.25% (v/v) crop oil concentrate.
(§7) Applications were made by injecting, with a pipetter, appropriate amounts of the application solutions, individually and sequentially, into the aqueous layer of the paddy. Control plants were treated in the same manner with the solvent blank. Applications were made so that all treated plant material received the same concentrations of acetone and crop oil concentrate.
(§8) The treated plants and control plants were placed in a greenhouse as described above and water was added as needed to maintain a paddy flood. After approximately 3 weeks the condition of the test plants as compared with that of the untreated plants was determined visually and scored on a scale of 0 to 100 percent where 0 corresponds to no injury or growth inhibition and 100 corresponds to complete kill. […]

BRAPP = test: Postemergence foliar-applied greenhouse weed control, direct-seeded rice system; assay type: in vivo
Text: (§9) Seeds or nutlets of the desired test plant species were planted in a soil matrix prepared by mixing a loam or sandy loam soil (e.g., 28.6 percent silt, 18.8 percent clay, and 52.6 percent sand, with a pH of about 5.8 and an organic matter content of about 1.8 percent) and calcareous grit in an 80 to 20 ratio. The soil matrix was contained in plastic pots with a volume of 1 quart and a surface area of 83.6 square centimeters (cm^2). When required to ensure good germination and healthy plants, a fungicide treatment and/or other chemical or physical treatment was applied. The plants were grown for 8-22 days in a greenhouse with an approximate 14 h photoperiod which was maintained at about 29° C. during the day and 26° C. during the night. Nutrients (Peters Excel® 15-5-15 5-Ca 2-Mg and iron chelate) were applied in the irrigation solution as needed and water was added on a regular basis. Supplemental lighting was provided with overhead metal halide 1000-Watt lamps as necessary. The plants were employed for testing when they reached the first through fourth true leaf stage.
(§10) Treatments consisted of the acid or esters of 4-amino-3-chloro-5-fluoro-6-(4-chloro-2-fluoro-3-methoxy-phenyl)pyridine-2-carboxylic acid (Compound A), each formulated as an SC (suspension concentrate), and various herbicidal components alone and in combination. Forms of compound A were applied on an acid equivalent basis.
(§11) Other herbicidal components were applied on an active ingredient basis and included diamuron formulated as an EC (emulsifiable concentrate) and oxaziclomefone (technical grade material).
(§12) Treatment requirements were calculated based upon the rates being tested, the concentration of active ingredient or acid equivalent in the formulation, and a 12 mL application volume at a rate of 187 L/ha.
(§13) For treatments comprised of formulated compounds, measured amounts of compounds were placed individually in 25 mL glass vials and diluted in a volume of 1.25% (v/v) Agri-Dex® crop oil concentrated to obtain 12× stock solutions. […] Application solutions were prepared by adding an appropriate amount of each stock solution (e.g., 1 mL) and diluted to the appropriate final concentrations with the addition of 10 mL of an aqueous mixture of 1.25% (v/v) crop oil concentrate so that the final spray solutions contained 1.25+/−0.05% (v/v) crop oil concentrate.
(§14) For treatments comprised of technical compounds, weighed amounts can be placed individually in 25 mL glass vials and dissolved in a volume of 97:3 v/v acetone/DMSO to obtain 12× stock solutions. […] Application solutions can be prepared by adding an appropriate amount of each stock solution (e.g., 1 mL) and diluted to the appropriate final concentrations with the addition of 10 mL of an aqueous mixture of 1.5% (v/v) crop oil concentrate so that the final spray solutions contain 1.25% (v/v) crop oil concentrate. When technical materials are used, the concentrated stock solutions can be added to the spray solutions so that the final acetone and DMSO concentrations of the application solutions are 16.2% and 0.5%, respectively.
(§15) For treatments comprised of formulated and technical compounds, weighed amounts of the technical materials were placed individually in 25 mL glass vials and dissolved in a volume of 97:3 v/v acetone/DMSO to obtain 12× stock solutions, and measured amounts of the formulated compounds were placed individually in 25 mL glass vials and diluted in a volume of 1.5% (v/v) crop oil concentrate or water to obtain 12× stock solutions. […] Application solutions were prepared by adding an appropriate amount of each stock solution (e.g., 1 mL) and diluted to the appropriate final concentrations with the addition of an appropriate amount of an aqueous mixture of 1.5% (v/v) crop oil concentrate so that the final spray solutions contained 1.25% (v/v) crop oil concentrate. […]

LEFCH = test: as above; assay type: in vivo, Leptochloa chinensis (L.) Nees
Text: as §9, §10, §11, §12, §13, §14, §15

ECHCG [1] = test: as above; assay type: in vivo, Echinochloa crusgalli (L.) Beauv.
Text: as §9, §10, §11, §12, §13, §14, §15

ECHCO = test: as above; assay type: in vivo, Echinochloa colona (L.) Link
Text: as §9, §10, §11, §12, §13, §14, §15

IPOHE = test: as above; assay type: in vivo, Ipomoea hederacea Jacq.
Text: as §9, §10, §11, §12, §13, §14, §15

FIMMI = test: In-water applied greenhouse weed control, transplanted paddy rice system; assay type: in vivo, Fimbristylis miliacea (L.) Vahl; conditions: in-water application
Method: as §1, §2, §3, §4, §5, §6, §7, §8

CYPRO = test: as above; assay type: in vivo, Cyperus rotundus L.; conditions: in-water application
Method: as §1, §2, §3, §4, §5, §6, §7, §8

CYPIR = test: Postemergence foliar-applied greenhouse weed control, direct-seeded rice system; assay type: in vivo, Cyperus iria L.; conditions: Oxaziclomefone 6.25 gai/ha alone
Text: as §9, with “stage. […]” for “stage.”
as §12
(§16) For treatments comprised of formulated compounds, measured amounts of compounds were placed individually in 25 mL glass vials and diluted in a volume of 1.25% (v/v) Agri-Dex® crop oil concentrated to obtain 12× stock solutions. […]
(§17) For treatments comprised of formulated and technical compounds, weighed amounts of the technical materials were placed individually in 25 mL glass vials and dissolved in a volume of 97:3 v/v acetone/DMSO to obtain 12× stock solutions, and measured amounts of the formulated compounds were placed individually in 25 mL glass vials and diluted in a volume of 1.5% (v/v) crop oil concentrate or water to obtain 12× stock solutions. […]

SCPJU = test: as above; assay type: in vivo, Schoenoplectus juncoides (Roxb.) Palla; conditions: Oxaziclomefone 6.25 gai/ha alone
Text: as §9, with “stage. […]” for “stage.”
as §12, §16, §17

ECHCG [2] = test: In-water applied greenhouse weed control, transplanted paddy rice system; assay type: in vivo, Echinochloa crusgalli (L.) Beauv.; conditions: in-water application; Oxaziclomafone 20 gai/ha alone
Method: Weed seeds or nutlets of the desired test plant species were planted in puddled soil (mud) prepared by mixing a shredded, non-sterilized mineral soil (50.5 percent silt, 25.5 percent clay, and 24 percent sand, with a pH of about 7.6 and an organic matter content of about 2.9 percent) and water at a 1:1 volumetric ratio. The prepared mud was dispensed in 365 mL aliquots into 16-ounce (oz.) non-perforated plastic pots with a surface area of 86.59 square centimeters (cm^2) leaving a headspace of 3 centimeters (cm) in each pot. Mud was allowed to dry overnight prior to planting or transplanting. Rice seeds were planted in Sun Gro MetroMix® 306 planting mixture, which typically has a pH of 6.0 to 6.8 and an organic matter content of about 30 percent, in plastic plug trays. Seedlings at the second or third leaf stage of growth were transplanted into 840 mL of mud contained in 32-oz. non-perforated plastic pots with a surface area of 86.59 cm^2 4 days prior to herbicide application. The paddy was created by filling the headspace of the pots with 2.5 to 3 cm of water. […]
as §4
For formulated compounds, a measured amount was placed in an individual 100 or 200 mL glass vial and was dissolved in a volume of 1.25% (v/v) Agri-Dex® crop oil concentrate to obtain application solutions. […]
as §8

[3] = Daimuron 100 gai/ha alone (Table 2)
[4] = Daimuron 200 gai/ha alone (Table 2)
[5] = Daimuron 400 gai/ha alone (Table 2)

Cc1ccc(NC(=O)NC(C)(C)c2ccccc2)cc1 [Daimuron, N-(4-methylphenyl)-N′-(1-methyl-1-phenylethyl)urea]
Visual Weed Control (%) - 21 DAA ECHOR Obs (ECHOR; Daimuron 200 gai/ha alone): 0%
Visual Weed Control (%) - 21 DAA ECHOR Obs (ECHOR; Daimuron 400 gai/ha alone): 15%
Visual Weed Control (%) - 20 DAA ECHOR Obs (ECHOR; Diamuron 400 gai/ha alone): 60%
Visual Weed Control (%) - 20 DAA BRAPP Obs (BRAPP; Daimuron 100 gai/ha alone): 0%
Visual Weed Control (%) - 20 DAA BRAPP Obs (BRAPP; [3]): 0%
Visual Weed Control (%) - 20 DAA BRAPP Obs (BRAPP; Daimuron 200 gai/ha alone): 0%
Visual Weed Control (%) - 20 DAA BRAPP Obs (BRAPP; [4]): 0%
Visual Weed Control (%) - 20 DAA BRAPP Obs (BRAPP; Daimuron 400 gai/ha alone): 0%
Visual Weed Control (%) - 20 DAA BRAPP Obs (BRAPP; [5]): 0%
Visual Weed Control (%) - 20 DAA LEFCH Obs (LEFCH; Daimuron 100 gai/ha alone): 0%
Visual Weed Control (%) - 20 DAA LEFCH Obs (LEFCH; Daimuron 200 gai/ha alone): 0%
Visual Weed Control (%) - 20 DAA LEFCH Obs (LEFCH; [4]): 0%
Visual Weed Control (%) - 20 DAA LEFCH Obs (LEFCH; Daimuron 400 gai/ha alone): 0%
Visual Weed Control (%) - 20 DAA LEFCH Obs (LEFCH; [5]): 0%
Visual Weed Control (%) - 20 DAA ECHCG Obs (ECHCG [1]; Daimuron 100 gai/ha alone): 0%
Visual Weed Control (%) - 20 DAA ECHCG Obs (ECHCG [1]; [3]): 0%
Visual Weed Control (%) - 20 DAA ECHCG Obs (ECHCG [1]; Daimuron 200 gai/ha alone): 0%
Visual Weed Control (%) - 20 DAA ECHCG Obs (ECHCG [1]; [4]): 0%
Visual Weed Control (%) - 20 DAA ECHCG Obs (ECHCG [1]; Daimuron 400 gai/ha alone): 0%
Visual Weed Control (%) - 20 DAA ECHCG Obs (ECHCG [1]; [5]): 0%
Visual Weed Control (%) - 20 DAA ECHCO Obs (ECHCO; Daimuron 100 gai/ha alone): 0%
Visual Weed Control (%) - 20 DAA ECHCO Obs (ECHCO; [3]): 0%
Visual Weed Control (%) - 20 DAA ECHCO Obs (ECHCO; Daimuron 200 gai/ha alone): 10%
Visual Weed Control (%) - 20 DAA ECHCO Obs (ECHCO; [4]): 10%
Visual Weed Control (%) - 20 DAA ECHCO Obs (ECHCO; Daimuron 400 gai/ha alone): 10%
Visual Weed Control (%) - 20 DAA ECHCO Obs (ECHCO; [5]): 10%
Visual Weed Control (%) - 20 DAA IPOHE Obs (IPOHE; Daimuron 100 gai/ha alone): 0%
Visual Weed Control (%) - 20 DAA IPOHE Obs (IPOHE; [3]): 0%
Visual Weed Control (%) - 20 DAA IPOHE Obs (IPOHE; Daimuron 200 gai/ha alone): 10%
Visual Weed Control (%) - 21 DAA FIMMI Obs (FIMMI; Daimuron 200 gai/ha alone): 10%
Visual Weed Control (%) - 21 DAA FIMMI Obs (FIMMI; Daimuron 400 gai/ha alone): 80%

CC1=C(c2ccccc2)C(=O)N(C(C)(C)c2cc(Cl)cc(Cl)c2)CO1 [Oxaziclomefone, 3-[1-(3,5-dichlorophenyl)-1-methylethyl]-2,3-dihydro-6-methyl-5-phenyl-4H-1,3-oxazin-4-one]
Visual Weed Control (%) - 21 DAA CYPRO Obs (CYPRO; Oxaziclomafone 20 gai/ha alone (Table 6)): 0%
Visual Weed Control (%) - 21 DAA CYPRO Obs (CYPRO; Oxaziclomafone 20 gai/ha alone (Table 7)): 0%
Visual Weed Control (%) - 21 DAA CYPRO Obs (CYPRO; Oxaziclomafone 40 gai/ha alone (Table 7)): 0%
Visual Weed Control (%) - 22 DAA CYPIR Obs (CYPIR): 0%
Visual Weed Control (%) - 22 DAA SCPJU Obs (SCPJU): 0%
Visual Weed Control (%) - 21 DAA ECHCG Obs (ECHCG [2]): 80%
